Experimental data reported in PubChem BioAssay (NCI).
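Following 48 hours of exposure in 96-well plates, responses at five concentrations were used to interpolate endpoints linearly. TGI denotes the concentration required for complete inhibition of growth.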

Tests used:
Test in all cases: growth of human tumour cells (NCI), 48 h
[1] = tested on: T-47D breast
[2] = tested on: CCRF-CEM leukemia
[3] = tested on: MDA-N
[4] = tested on: SNB-75 CNS
[5] = tested on: RXF 393 renal
[6] = tested on: HOP-62 NSCLC
[7] = tested on: MALME-3M melanoma
[8] = tested on: SK-MEL-28 melanoma
[9] = tested on: HL-60(TB) leukemia
[10] = tested on: A498 renal
[11] = tested on: M14 melanoma
[12] = tested on: NCI-H460 lung
[13] = tested on: ACHN renal
[14] = tested on: COLO 205 colon
[15] = tested on: OVCAR-4 ovarian
[16] = tested on: HT29 colon
[17] = tested on: HCC-2998 colon
[18] = tested on: OVCAR-5 ovarian
[19] = tested on: MDA-MB-231 breast
[20] = tested on: K-562 leukemia
[21] = tested on: NCI-H522 lung
[22] = tested on: SK-OV-3 ovarian
[23] = tested on: HOP-92 NSCLC
[24] = tested on: RPMI-8226 leukemia
[25] = tested on: SF-539 CNS
[26] = tested on: MDA-MB-435
[27] = tested on: SF-268 CNS
[28] = tested on: SK-MEL-5 melanoma
[29] = tested on: LOX IMVI melanoma
[30] = tested on: OVCAR-8 ovarian
[31] = tested on: SR leukemia
[32] = tested on: DU-145 prostate
[33] = tested on: UACC-257 melanoma
[34] = tested on: KM12 colon
[35] = tested on: EKVX NSCLC
[36] = tested on: UACC-62 melanoma
[37] = tested on: NCI/ADR-RES ovarian
[38] = tested on: SN12C renal
[39] = tested on: MOLT-4 leukemia
[40] = tested on: A549 NSCLC
[41] = tested on: IGROV1 ovarian
[42] = tested on: OVCAR-3 ovarian
[43] = tested on: SK-MEL-2 melanoma
[44] = tested on: TK-10 renal
[45] = tested on: SNB-19 CNS
[46] = tested on: HCT-15 colon
[47] = tested on: NCI-H226 lung
[48] = tested on: MCF7 breast
[49] = tested on: SW-620 colon
[50] = tested on: NCI-H23 lung
[51] = tested on: SF-295 CNS
[52] = tested on: UO-31 renal
[53] = tested on: U251 CNS
[54] = tested on: BT-549 breast
[55] = tested on: PC-3 prostate
[56] = tested on: HCT-116 colon

SMILES: O=C1/C(=C/c2ccc3c(c2)CCC3)Cc2cc3c(cc21)CCC3
- TGI [1]: > 100 µM
- TGI [2]: > 100 µM
- TGI [3]: > 100 µM
- TGI [4]: > 100 µM
- TGI [5]: > 100 µM
- TGI [6]: > 100 µM
- TGI [7]: > 100 µM
- TGI [8]: > 100 µM
- TGI [9]: > 100 µM
- TGI [10]: > 100 µM
- TGI [11]: > 100 µM
- TGI [12]: > 100 µM
- TGI [13]: > 100 µM
- TGI [14]: > 100 µM
- TGI [15]: > 100 µM
- TGI [16]: > 100 µM
- TGI [17]: > 100 µM
- TGI [18]: > 100 µM
- TGI [19]: > 100 µM
- TGI [20]: > 100 µM
- TGI [21]: > 100 µM
- TGI [22]: > 100 µM
- TGI [23]: 97.6 µM
- TGI [24]: > 100 µM
- TGI [25]: > 100 µM
- TGI [26]: > 100 µM
- TGI [27]: > 100 µM
- TGI [28]: > 100 µM
- TGI [29]: > 100 µM
- TGI [30]: > 100 µM
- TGI [31]: > 100 µM
- TGI [32]: > 100 µM
- TGI [33]: > 100 µM
- TGI [34]: > 100 µM
- TGI [35]: > 100 µM
- TGI [36]: > 100 µM
- TGI [37]: > 100 µM
- TGI [38]: > 100 µM
- TGI [39]: > 100 µM
- TGI [40]: > 100 µM
- TGI [41]: > 100 µM
- TGI [42]: > 100 µM
- TGI [43]: > 100 µM
- TGI [44]: > 100 µM
- TGI [45]: > 100 µM
- TGI [46]: > 100 µM
- TGI [47]: > 100 µM
- TGI [48]: > 100 µM
- TGI [49]: > 100 µM
- TGI [50]: > 100 µM
- TGI [51]: > 100 µM
- TGI [52]: > 100 µM
- TGI [53]: > 100 µM
- TGI [54]: > 100 µM
- TGI [55]: > 100 µM
- TGI [56]: > 100 µM
